According to US11452725B2, “Chiral diaryl macrocycles and uses thereof” (TURNING POINT THERAPEUTICS, INC., priority 2015, dated 2022):

Tests used:
[1] = test system: Ba/F3 TEL-TRKB (ETV6-TRKB) G639R cell line; assay: Cell proliferation assay (CellTiter-Glo); assay type: cell-based; conditions: Mus musculus, BaF3; 72 hours
[2] = target: T1, FYN (Homo sapiens, UniProt P06241); assay: Biochemical kinase assay (Reaction Biology); conditions: 10 μM ATP
T1 construct: purchased Reaction Biology Corporation
T1 sequence (P06241 whole entry): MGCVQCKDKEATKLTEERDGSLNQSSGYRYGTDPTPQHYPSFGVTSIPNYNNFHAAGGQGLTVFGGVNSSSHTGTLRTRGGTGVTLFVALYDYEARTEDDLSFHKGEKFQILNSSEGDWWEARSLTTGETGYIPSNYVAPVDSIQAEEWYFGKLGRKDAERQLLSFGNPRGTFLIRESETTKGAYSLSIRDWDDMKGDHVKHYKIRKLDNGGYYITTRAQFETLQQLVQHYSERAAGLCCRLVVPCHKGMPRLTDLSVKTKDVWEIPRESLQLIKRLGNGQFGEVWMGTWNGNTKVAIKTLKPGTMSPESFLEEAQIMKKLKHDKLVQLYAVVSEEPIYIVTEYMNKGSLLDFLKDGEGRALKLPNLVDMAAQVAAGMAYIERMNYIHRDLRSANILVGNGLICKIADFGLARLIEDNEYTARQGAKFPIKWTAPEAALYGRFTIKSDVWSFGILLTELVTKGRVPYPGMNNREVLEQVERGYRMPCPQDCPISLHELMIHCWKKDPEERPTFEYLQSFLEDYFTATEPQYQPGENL
Description: (§2) Specific kinase/substrate pairs along with required cofactors were prepared in reaction buffer; 20 mM Hepes pH 7.5, 10 mM MgCl2, 1 mM EGTA, 0.02% Brij35, 0.02 mg/ml BSA, 0.1 mM Na3VO4, 2 mM DTT, 1% DMSO (for specific details of individual kinase reaction components see Supplementary Table 2). Compounds were delivered into the reaction, followed ˜20 minutes later by addition of a mixture of ATP (Sigma, St. Louis Mo.) and ^33P ATP (Perkin Elmer, Waltham Mass.) to a final concentration of 10 μM. Reactions were carried out at room temperature for 120 min, followed by spotting of the reactions onto P81 ion exchange filter paper (Whatman Inc., Piscataway, N.J.). […] IC50 values and curve fits were obtained using Prism (GraphPad Software).

[3] = test system: AKT; assay: Immunoblotting downstream signaling, KM12 cells; assay type: cell-based; conditions: Homo sapiens; KM12 cell line; read-out: downstream AKT phosphorylation IC50
Description: (§1) NSCLC cell line H2228 (harboring endogenous EML4-ALK fusion gene), HCC78 cells (harboring endogenous SLC34A2-ROS1 fusion gene), Karpas-299 cells (harboring endogenous NPM-ALK fusion gene) or SET-2 (harboring endogenous JAK2V617F activating mutation) were cultured in RPMI medium, and KM12 (harboring endogenous TPM3-TRKA fusion gene) cell line was cultured in DMEM medium, both supplemented with 10% fetal bovine serum and 100 U/mL of penicillin/streptomycin. Ba/F3 and NIH3T3 cells stably expressing ALK or ROS1 (WT or mutant) were culture as mentioned above. […] Protein lysates (approximately 20 μg) was resolved on 4-12% Bolt Bis-Tris precasted gels with MES running buffer (Life Technologies), transferred to nitrocellulose membranes using Trans-Blot Turbo Transfer System (Bio-Rad) and detected with antibodies targeting phosphorylated ALK Y1604 (Cell Signaling Technology), total ALK (Cell Signaling Technology), phosphorylated ROS1 and total ROS1 (Cell Signaling Technology), phosphorylated TRK A/B (Cell Signaling Technology), total TRKA antibody (Santa Cruz Biotechnology), phosphorylated STAT3 and STAT5, total STAT3 and STAT5 (Cell Signaling Technology), phosphorylated AKT (Cell Signaling Technology), total AKT (Cell Signaling Technology), phosphorylated ERK (Cell Signaling Technology), total ERK (Cell Signaling Technology) and Tubulin (Sigma). […]

[4] = test system: ERK; assay: Immunoblotting downstream signaling, KM12 cells; assay type: cell-based; conditions: Homo sapiens; KM12 cell line; read-out: downstream ERK phosphorylation IC50
Description: as §1

[5] = target: T2, IGFR (Homo sapiens, UniProt P08069); assay: Biochemical kinase assay (Reaction Biology); conditions: 10 μM ATP
T2 construct: purchased Reaction Biology Corporation (contract assay)
T2 sequence (P08069 31-1367): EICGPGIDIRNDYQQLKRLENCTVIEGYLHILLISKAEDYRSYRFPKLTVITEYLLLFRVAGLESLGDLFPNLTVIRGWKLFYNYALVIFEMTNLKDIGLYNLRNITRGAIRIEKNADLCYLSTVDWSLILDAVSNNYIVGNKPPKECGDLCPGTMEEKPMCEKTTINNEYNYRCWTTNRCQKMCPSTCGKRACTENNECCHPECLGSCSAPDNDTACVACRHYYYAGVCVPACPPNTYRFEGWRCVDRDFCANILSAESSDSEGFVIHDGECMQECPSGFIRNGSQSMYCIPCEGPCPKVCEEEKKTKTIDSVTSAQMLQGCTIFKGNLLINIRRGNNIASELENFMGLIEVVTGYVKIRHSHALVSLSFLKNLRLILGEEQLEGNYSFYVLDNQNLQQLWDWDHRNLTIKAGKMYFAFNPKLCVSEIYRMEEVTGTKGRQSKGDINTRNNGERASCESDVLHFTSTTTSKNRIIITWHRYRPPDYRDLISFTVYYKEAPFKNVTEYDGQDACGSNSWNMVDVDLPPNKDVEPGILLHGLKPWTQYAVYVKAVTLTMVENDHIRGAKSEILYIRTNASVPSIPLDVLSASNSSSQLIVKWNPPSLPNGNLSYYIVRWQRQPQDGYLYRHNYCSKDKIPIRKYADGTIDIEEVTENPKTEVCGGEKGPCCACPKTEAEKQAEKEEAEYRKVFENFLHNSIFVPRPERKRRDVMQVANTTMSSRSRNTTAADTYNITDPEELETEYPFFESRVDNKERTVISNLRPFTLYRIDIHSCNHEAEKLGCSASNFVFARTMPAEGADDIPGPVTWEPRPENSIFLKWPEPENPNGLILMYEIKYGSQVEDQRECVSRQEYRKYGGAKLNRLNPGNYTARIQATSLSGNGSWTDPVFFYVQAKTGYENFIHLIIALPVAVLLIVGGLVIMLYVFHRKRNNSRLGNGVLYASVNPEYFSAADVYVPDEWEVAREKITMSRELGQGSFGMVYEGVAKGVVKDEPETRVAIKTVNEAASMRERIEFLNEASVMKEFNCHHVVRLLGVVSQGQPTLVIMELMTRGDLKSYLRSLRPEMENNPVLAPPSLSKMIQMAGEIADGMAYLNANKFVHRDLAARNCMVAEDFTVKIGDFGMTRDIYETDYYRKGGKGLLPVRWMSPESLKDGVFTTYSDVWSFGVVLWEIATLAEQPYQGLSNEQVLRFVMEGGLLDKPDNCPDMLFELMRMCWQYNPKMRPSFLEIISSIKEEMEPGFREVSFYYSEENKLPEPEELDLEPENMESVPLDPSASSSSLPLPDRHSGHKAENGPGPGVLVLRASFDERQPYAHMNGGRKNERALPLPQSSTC
Description: as §2

[6] = test system: AKT; assay: Immunoblotting downstream signaling, HCC78 cells; assay type: cell-based; conditions: Homo sapiens; HCC78 cell line; read-out: downstream AKT phosphorylation IC50
Description: as §1

[7] = test system: STAT3; assay: Immunoblotting downstream signaling, HCC78 cells; assay type: cell-based; conditions: Homo sapiens; HCC78 cell line; read-out: downstream STAT3 phosphorylation IC50
Description: as §1

C[C@H]1CNC(=O)c2cnn3ccc(nc23)N[C@H](C)c2cc(F)ccc2O1 [Compound 1, (7S,13R)-11-fluoro-7,13-dimethyl-6,7,13,14-tetrahydro-1,15-ethenopyrazolo[4,3-f][1,4,8,10]benzoxatriazacyclotridecin-4(5H)-one]
IC50 [1]: 0.6 nM
IC50 [2]: 1.05 nM
IC50 [3]: ~0.3 nM
IC50 [4]: ~0.3 nM
IC50 [5]: 111 nM
IC50 [6]: 1 to 3 nM
IC50 [7]: 1 to 3 nM
